Data published in ChEMBL document CHEMBL1133283, “Arylsulfonyl-N,N-diethyl-dithiocarbamates: a novel class of antitumor agents” (Bioorg Med Chem Lett, 2000).

Columns and labels:
Carbonic anhydrase 2 = Carbonic anhydrase 2 (Homo sapiens, UniProt P00918); test: Binding affinity of compound against human Carbonic anhydrase II
UO-31 = test: In vitro growth inhibition of compound was determined against UO-31 cell lines of Renal cancer; assay type: functional; details: Homo sapiens
SNB-75 = test: In vitro growth inhibition of compound was determined against SNB-75 cell lines of CNS cancer; assay type: functional; details: Homo sapiens
SN12C = test: In vitro growth inhibition of compound was determined against SN12C cell lines of Renal cancer; assay type: functional; details: Homo sapiens
A549 = test: In vitro growth inhibition of compound was determined against A549/ATCC cell lines of non-small cell lung cancer; assay type: functional; details: Homo sapiens
HOP-62 = test: In vitro growth inhibition of compound was determined against HOP-62 cell lines of non-small cell lung cancer; assay type: functional; details: Homo sapiens
ACHN = test: In vitro growth inhibition of compound was determined against ACHN cell lines of Renal cancer; assay type: functional; details: Homo sapiens
DU-145 = test: In vitro growth inhibition of compound was determined against DU-145 cell lines of Prostate cancer; assay type: functional; details: Homo sapiens
U-251 = test: In vitro growth inhibition of compound was determined against U251 cell lines of CNS cancer; assay type: functional; details: Homo sapiens
LOX IMVI = test: In vitro growth inhibition of compound was determined against LOX IMVI cell lines of Melanoma; assay type: functional; details: Homo sapiens
HCT-15 = test: In vitro growth inhibition of compound was determined against HCT-15 cell lines of colon cancer; assay type: functional; details: Homo sapiens
SF-268 = test: In vitro growth inhibition of compound was determined against SF-268 cell lines of CNS cancer; assay type: functional; details: Homo sapiens
SF-295 = test: In vitro growth inhibition of compound was determined against SF-295 cell lines of CNS cancer; assay type: functional; details: Homo sapiens
Malme-3M = test: In vitro growth inhibition of compound was determined against MALME-3M cell lines of Melanoma; assay type: functional; details: Homo sapiens
SK-MEL-28 = test: In vitro growth inhibition of compound was determined against SK-MEL-28 cell lines of Melanoma; assay type: functional; details: Homo sapiens
NCI-H522 = test: In vitro growth inhibition of compound was determined against NCI-H522 cell lines of non-small cell lung cancer; assay type: functional; details: Homo sapiens
RPMI-8226 = test: In vitro growth inhibition of compound was determined against RPMI-8226 cell lines of Leukemia; assay type: functional; details: Homo sapiens
OVCAR-4 = test: In vitro growth inhibition of compound was determined against OVCAR-4 cell lines of Ovarian cancer; assay type: functional; details: Homo sapiens
SK-MEL-5 = test: In vitro growth inhibition of compound was determined against SK-MEL-5 cell lines of Melanoma; assay type: functional; details: Homo sapiens
CCRF-CEM = test: In vitro growth inhibition of compound was determined against CCRF-CEM cell lines of Leukemia; assay type: functional; details: Homo sapiens
CAKI-1 = test: In vitro growth inhibition of compound was determined against CAKI-1 cell lines of Renal cancer; assay type: functional; details: Homo sapiens
M14 = test: In vitro growth inhibition of compound was determined against M14 cell lines of Melanoma; assay type: functional; details: Homo sapiens
HOP-92 = test: In vitro growth inhibition of compound was determined against HOP-92 cell lines of non-small cell lung cancer; assay type: functional; details: Homo sapiens
HCT-116 = test: In vitro growth inhibition of compound was determined against HCT116 cell lines of colon cancer; assay type: functional; details: Homo sapiens
TK-10 = test: In vitro growth inhibition of compound was determined against TK-10 cell lines of Renal cancer; assay type: functional; details: Homo sapiens
MDA-MB-435 = test: In vitro growth inhibition of compound was determined against MDA-MB-435 cell lines of Breast cancer; assay type: functional; details: Homo sapiens
Hs-578T = test: In vitro growth inhibition of compound was determined against Hs 578.T cell lines of Breast cancer; assay type: functional; details: Homo sapiens
MDA-MB-231 = test: In vitro growth inhibition of compound was determined against MDA-MB-231/ATCC cell lines of Breast cancer; assay type: functional; details: Homo sapiens
OVCAR-3 = test: In vitro growth inhibition of compound was determined against OVCAR-3 cell lines of Ovarian cancer; assay type: functional; details: Homo sapiens
MOLT-4 = test: In vitro growth inhibition of compound was determined against MOLT-4 cell lines of Leukemia; assay type: functional; details: Homo sapiens
BT-549 = test: In vitro growth inhibition of compound was determined against BT-549 cell lines of Breast cancer; assay type: functional; details: Homo sapiens
MDA-N = test: In vitro growth inhibition of compound was determined against MDA-Ncell lines of Breast cancer; assay type: functional; details: Homo sapiens
HL-60 = test: In vitro growth inhibition of compound was determined against HL-60(TB) cell lines of Leukemia; assay type: functional; details: Homo sapiens
IGROV-1 = test: In vitro growth inhibition of compound was determined against IGROVI cell lines of Ovarian cancer; assay type: functional; details: Homo sapiens
NCI/ADR-RES = test: In vitro growth inhibition of compound was determined against NCI/ADR-RES cell lines of Breast cancer; assay type: functional; details: Homo sapiens
NCI-H226 = test: In vitro growth inhibition of compound was determined against NCI-H226 cell lines of non-small cell lung cancer; assay type: functional; details: Homo sapiens
KM12 = test: In vitro growth inhibition of compound was determined against KM12 cell lines of colon cancer; assay type: functional; details: Homo sapiens
786-0 = test: In vitro growth inhibition of compound was determined against […] cell lines of Renal cancer; assay type: functional; details: Homo sapiens
OVCAR-8 = test: In vitro growth inhibition of compound was determined against OVCAR-8 cell lines of Ovarian cancer; assay type: functional; details: Homo sapiens
UACC-257 = test: In vitro growth inhibition of compound was determined against UACC-257 cell lines of Melanoma; assay type: functional; details: Homo sapiens
COLO 205 = test: In vitro growth inhibition of compound was determined against COLO-205 cell lines of colon cancer; assay type: functional; details: Homo sapiens
MCF7 = test: In vitro growth inhibition of compound was determined against MCF-7 cell lines of Breast cancer; assay type: functional; details: Homo sapiens
RXF 393 = test: In vitro growth inhibition of compound was determined against RXF393 cell lines of Renal cancer; assay type: functional; details: Homo sapiens
SR = test: In vitro growth inhibition of compound was determined against SR cell lines of Leukemia; assay type: functional; details: Homo sapiens
K562 = test: In vitro growth inhibition of compound was determined against K-562 cell lines of Leukemia; assay type: functional; details: Homo sapiens
SW-620 = test: In vitro growth inhibition of compound was determined against SW-620 cell lines of colon cancer; assay type: functional; details: Homo sapiens
HCC 2998 = test: In vitro growth inhibition of compound was determined against HCC2998 cell lines of colon cancer; assay type: functional; details: Homo sapiens
HT-29 = test: In vitro growth inhibition of compound was determined against HT-29 cell lines of colon cancer; assay type: functional; details: Homo sapiens
PC-3 = test: In vitro growth inhibition of compound was determined against PC-3 cell lines of Prostate cancer; assay type: functional; details: Homo sapiens

## NS(=O)(=O)c1ccc(NSC(=S)N2CCOCC2)cc1
Carbonic anhydrase 2
  Ki: 0.035 µM

## NS(=O)(=O)c1ccc(CCNSC(=S)N2CCOCC2)cc1
Carbonic anhydrase 2
  Ki: 0.035 µM

## CCN(CC)C(=S)SS(=O)(=O)c1ccc(NC(C)=O)cc1
UO-31
  GI50: 20 µM
SNB-75
  GI50: 32 µM
SN12C
  GI50: 18 µM
A549
  GI50: 0.2 µM
HOP-62
  GI50: 18 µM
ACHN
  GI50: 27 µM
DU-145
  GI50: 23 µM
U-251
  GI50: 15 µM
LOX IMVI
  GI50: 14 µM
HCT-15
  GI50: 28 µM
SF-268
  GI50: 44 µM
SF-295
  GI50: 28 µM
Malme-3M
  GI50: 16 µM
SK-MEL-28
  GI50: 15 µM
NCI-H522
  GI50: < 0.01 µM
RPMI-8226
  GI50: 18 µM
OVCAR-4
  GI50: 22 µM
SK-MEL-5
  GI50: 0.4 µM
CCRF-CEM
  GI50: 20 µM
CAKI-1
  GI50: 16 µM
M14
  GI50: 15 µM
HOP-92
  GI50: 16 µM
HCT-116
  GI50: 15 µM
TK-10
  GI50: 48 µM
MDA-MB-435
  GI50: 19 µM
Hs-578T
  GI50: 60 µM
MDA-MB-231
  GI50: 20 µM
OVCAR-3
  GI50: 31 µM
MOLT-4
  GI50: 48 µM
BT-549
  GI50: 61 µM
MDA-N
  GI50: 21 µM
HL-60
  GI50: 24 µM
IGROV-1
  GI50: 12 µM
NCI/ADR-RES
  GI50: 27 µM
NCI-H226
  GI50: 35 µM
KM12
  GI50: 13 µM
786-0
  GI50: 17 µM
OVCAR-8
  GI50: 15 µM
UACC-257
  GI50: 9 µM
COLO 205
  GI50: 22 µM
MCF7
  GI50: 18 µM
RXF 393
  GI50: 11 µM
SR
  GI50: 0.01 µM
K562
  GI50: 69 µM
SW-620
  GI50: 16 µM
HCC 2998
  GI50: 27 µM

## CCN(CC)C(=S)SS(=O)(=O)c1ccccc1C(=O)O
UO-31
  GI50: > 100 µM
SNB-75
  GI50: > 100 µM
A549
  GI50: 6.5 µM
HOP-62
  GI50: > 100 µM
ACHN
  GI50: > 100 µM
DU-145
  GI50: > 100 µM
U-251
  GI50: > 100 µM
LOX IMVI
  GI50: > 100 µM
HCT-15
  GI50: > 100 µM
SF-268
  GI50: > 100 µM
SF-295
  GI50: > 100 µM
Malme-3M
  GI50: 91 µM
SK-MEL-28
  GI50: > 100 µM
NCI-H522
  GI50: 1.2 µM
OVCAR-4
  GI50: > 100 µM
SK-MEL-5
  GI50: 37 µM
CCRF-CEM
  GI50: 82 µM
CAKI-1
  GI50: > 100 µM
M14
  GI50: > 100 µM
HOP-92
  GI50: > 100 µM
MDA-MB-231
  GI50: > 100 µM
OVCAR-3
  GI50: > 100 µM
HT-29
  GI50: > 100 µM
MDA-N
  GI50: > 100 µM
HL-60
  GI50: 1.4 µM
IGROV-1
  GI50: > 100 µM
NCI-H226
  GI50: > 100 µM
786-0
  GI50: > 100 µM
OVCAR-8
  GI50: > 100 µM
UACC-257
  GI50: > 100 µM
COLO 205
  GI50: > 100 µM
PC-3
  GI50: > 100 µM
MCF7
  GI50: > 100 µM
RXF 393
  GI50: > 100 µM
SR
  GI50: 3.6 µM
SW-620
  GI50: > 100 µM
